Active and inactive are the calls of the source. Bounds are passed on as bounds.

Test [1] concerns the target Adenosylmethionine-8-amino-7-oxononanoate aminotransferase (Mycobacterium tuberculosis, UniProt P9WQ81). Description: Mycobacterium tuberculosis BioA enzyme inhibitor Measured in Biochemical System Using Plate Reader - 2163-02_Inhibitor_Dose_CherryPick_Activity. It counts as functional, Mycobacterium tuberculosis UT205.
Test [2] has as its target T1, Histone-lysine N-methyltransferase NSD2 (Homo sapiens, UniProt O96028).
T1 sequence (O96028 whole entry): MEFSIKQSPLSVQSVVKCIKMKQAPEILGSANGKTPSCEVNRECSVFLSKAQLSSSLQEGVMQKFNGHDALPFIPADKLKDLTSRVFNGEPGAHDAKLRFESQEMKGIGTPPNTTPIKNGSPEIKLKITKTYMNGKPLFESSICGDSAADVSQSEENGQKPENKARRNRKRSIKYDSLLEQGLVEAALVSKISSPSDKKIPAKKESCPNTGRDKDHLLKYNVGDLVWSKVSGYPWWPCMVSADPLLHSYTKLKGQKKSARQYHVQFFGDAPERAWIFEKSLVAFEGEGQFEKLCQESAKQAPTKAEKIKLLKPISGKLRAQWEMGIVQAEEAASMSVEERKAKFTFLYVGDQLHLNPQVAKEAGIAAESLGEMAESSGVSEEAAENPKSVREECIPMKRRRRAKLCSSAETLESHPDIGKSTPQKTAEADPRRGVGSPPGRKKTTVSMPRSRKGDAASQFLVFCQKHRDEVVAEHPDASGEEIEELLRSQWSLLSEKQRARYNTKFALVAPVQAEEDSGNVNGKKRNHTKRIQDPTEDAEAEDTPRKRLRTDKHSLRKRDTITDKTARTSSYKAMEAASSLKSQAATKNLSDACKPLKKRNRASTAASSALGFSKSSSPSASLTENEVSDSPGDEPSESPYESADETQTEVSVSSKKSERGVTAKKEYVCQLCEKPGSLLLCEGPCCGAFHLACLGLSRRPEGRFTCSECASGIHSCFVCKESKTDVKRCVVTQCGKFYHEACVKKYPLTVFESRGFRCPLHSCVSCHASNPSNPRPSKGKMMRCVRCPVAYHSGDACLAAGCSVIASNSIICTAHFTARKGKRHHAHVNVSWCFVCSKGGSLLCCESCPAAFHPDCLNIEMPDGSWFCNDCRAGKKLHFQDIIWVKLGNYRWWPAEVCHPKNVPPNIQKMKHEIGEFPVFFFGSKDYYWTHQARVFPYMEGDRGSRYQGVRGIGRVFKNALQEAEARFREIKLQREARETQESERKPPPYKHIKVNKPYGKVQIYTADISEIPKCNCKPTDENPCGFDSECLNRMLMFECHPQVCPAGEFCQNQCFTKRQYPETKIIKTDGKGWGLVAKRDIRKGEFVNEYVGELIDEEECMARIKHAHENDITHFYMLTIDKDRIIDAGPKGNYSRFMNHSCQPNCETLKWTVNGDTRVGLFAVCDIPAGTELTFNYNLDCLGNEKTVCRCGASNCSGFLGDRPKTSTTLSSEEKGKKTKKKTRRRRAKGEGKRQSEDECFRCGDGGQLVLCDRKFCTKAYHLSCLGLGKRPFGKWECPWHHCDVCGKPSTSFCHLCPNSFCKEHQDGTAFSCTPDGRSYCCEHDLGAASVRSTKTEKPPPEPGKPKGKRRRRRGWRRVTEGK
It counts as biochemical.

The target of another test is Nonstructural protein 1 (Influenza A virus, UniProt Q194T2). It counts as functional, Influenza A virus (A/California/07/2009(H1N1)).
The target of test [3] is Ras and Rab interactor 1/Tyrosine-protein kinase ABL1 (Homo sapiens, UniProt P00519+Q13671). The test is classed as functional.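 Note: biochemical TR-FRET dose-response test measuring inhibition of binding between Rin1 and Abl proteins.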
Test [4] addresses T2, High affinity choline transporter 1 (Homo sapiens, UniProt Q9GZV3).
T2 sequence (Q9GZV3 whole entry): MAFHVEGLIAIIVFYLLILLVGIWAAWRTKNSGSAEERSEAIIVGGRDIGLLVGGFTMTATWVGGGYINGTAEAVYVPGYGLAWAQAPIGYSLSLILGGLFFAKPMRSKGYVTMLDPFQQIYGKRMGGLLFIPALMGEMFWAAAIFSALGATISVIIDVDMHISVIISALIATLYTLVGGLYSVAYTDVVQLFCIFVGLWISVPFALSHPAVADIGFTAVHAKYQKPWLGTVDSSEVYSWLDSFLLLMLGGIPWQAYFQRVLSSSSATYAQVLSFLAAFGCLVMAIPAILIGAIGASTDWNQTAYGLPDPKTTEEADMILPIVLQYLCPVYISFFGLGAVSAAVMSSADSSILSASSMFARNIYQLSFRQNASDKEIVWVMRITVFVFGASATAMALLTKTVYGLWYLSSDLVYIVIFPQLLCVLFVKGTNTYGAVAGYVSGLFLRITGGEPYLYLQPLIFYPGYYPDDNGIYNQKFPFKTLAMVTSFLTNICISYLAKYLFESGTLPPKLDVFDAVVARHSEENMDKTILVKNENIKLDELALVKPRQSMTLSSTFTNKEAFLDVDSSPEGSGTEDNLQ
Description: human choline transporter blockers, potency – cell-based, 5-point CRC, membrane potential dye, dose response (AID 504840). It counts as functional.

In test [5] the target is T2, High affinity choline transporter 1. Description: human choline transporter blockers, potency – cell-based, 10-point CRC, membrane potential dye, dose response (AID 588401).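 Note: membrane potential dye fluorescence of choline-evoked depolarization via CHT.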 The test is classed as functional.
Test [6] addresses Tyrosine-protein phosphatase non-receptor type 11 (Homo sapiens, UniProt Q06124). Description: PTPN11 enzyme inhibitors – biochemical, selectivity assay for STEP inhibitor project, dose response (AID 602367). It counts as functional. The settings on record: read-out: IC50_Mean.
The target in test [7] is Tyrosine-protein phosphatase non-receptor type 5 (Homo sapiens, UniProt P54829). Description: PTPN5 enzyme inhibition – biochemical, fluorescence intensity, uHTS hits, confirmation (AID 602372). The test is classed as functional. The settings on record: read-out: IC50_Mean.
Test [8] concerns the target Dual specificity protein phosphatase 3 (Homo sapiens, UniProt P51452). Description: VHR phosphatase inhibition, dose response, selectivity assay for STEP inhibitor project, biochemical (AID 602374). The test is classed as functional. The settings on record: read-out: IC50_Mean.
The target of test [9] is DNA repair and recombination protein RAD54-like (Homo sapiens, UniProt Q92698). Description: RAD54 Holliday junction migration blockers – biochemical, fluorescence, cherry-picked samples, dose series, confirmation (AID 651657). The test is classed as functional.
Another test deals with T3, Protein RecA (Mycobacterium tuberculosis, UniProt P9WHJ3).
T3 sequence (P9WHJ3 whole entry): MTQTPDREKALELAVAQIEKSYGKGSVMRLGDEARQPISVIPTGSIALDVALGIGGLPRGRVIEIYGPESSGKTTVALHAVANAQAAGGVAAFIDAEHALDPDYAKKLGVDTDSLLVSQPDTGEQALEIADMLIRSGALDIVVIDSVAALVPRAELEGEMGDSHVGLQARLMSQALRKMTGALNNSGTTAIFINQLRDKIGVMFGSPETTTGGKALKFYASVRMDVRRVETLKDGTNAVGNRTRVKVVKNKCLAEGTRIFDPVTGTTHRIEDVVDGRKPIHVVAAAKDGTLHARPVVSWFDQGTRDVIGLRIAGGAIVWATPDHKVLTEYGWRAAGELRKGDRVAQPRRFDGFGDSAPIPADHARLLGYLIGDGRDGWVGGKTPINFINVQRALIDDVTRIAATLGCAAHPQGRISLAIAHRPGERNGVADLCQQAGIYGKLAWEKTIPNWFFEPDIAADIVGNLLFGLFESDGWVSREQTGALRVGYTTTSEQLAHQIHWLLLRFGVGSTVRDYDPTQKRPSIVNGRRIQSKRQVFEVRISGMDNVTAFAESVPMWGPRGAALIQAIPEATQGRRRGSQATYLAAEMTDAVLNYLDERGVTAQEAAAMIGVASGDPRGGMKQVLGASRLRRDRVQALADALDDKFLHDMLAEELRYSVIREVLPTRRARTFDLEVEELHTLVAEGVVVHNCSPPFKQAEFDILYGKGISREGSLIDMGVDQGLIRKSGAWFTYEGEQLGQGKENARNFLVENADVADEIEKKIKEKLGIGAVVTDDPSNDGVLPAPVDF
Description: Fluorescence Cell-Free Homogeneous Dose Retest to Identify Inhibitors of RecA-Intein Splicing Activity. [Related pubchem assays (depositor defined):AID2097, AID2223, AID489010, AID492950]. It counts as functional.

For test [10], the target named is T4, Apoptotic protease-activating factor 1 (Homo sapiens, UniProt O14727).
T4 sequence (O14727 whole entry): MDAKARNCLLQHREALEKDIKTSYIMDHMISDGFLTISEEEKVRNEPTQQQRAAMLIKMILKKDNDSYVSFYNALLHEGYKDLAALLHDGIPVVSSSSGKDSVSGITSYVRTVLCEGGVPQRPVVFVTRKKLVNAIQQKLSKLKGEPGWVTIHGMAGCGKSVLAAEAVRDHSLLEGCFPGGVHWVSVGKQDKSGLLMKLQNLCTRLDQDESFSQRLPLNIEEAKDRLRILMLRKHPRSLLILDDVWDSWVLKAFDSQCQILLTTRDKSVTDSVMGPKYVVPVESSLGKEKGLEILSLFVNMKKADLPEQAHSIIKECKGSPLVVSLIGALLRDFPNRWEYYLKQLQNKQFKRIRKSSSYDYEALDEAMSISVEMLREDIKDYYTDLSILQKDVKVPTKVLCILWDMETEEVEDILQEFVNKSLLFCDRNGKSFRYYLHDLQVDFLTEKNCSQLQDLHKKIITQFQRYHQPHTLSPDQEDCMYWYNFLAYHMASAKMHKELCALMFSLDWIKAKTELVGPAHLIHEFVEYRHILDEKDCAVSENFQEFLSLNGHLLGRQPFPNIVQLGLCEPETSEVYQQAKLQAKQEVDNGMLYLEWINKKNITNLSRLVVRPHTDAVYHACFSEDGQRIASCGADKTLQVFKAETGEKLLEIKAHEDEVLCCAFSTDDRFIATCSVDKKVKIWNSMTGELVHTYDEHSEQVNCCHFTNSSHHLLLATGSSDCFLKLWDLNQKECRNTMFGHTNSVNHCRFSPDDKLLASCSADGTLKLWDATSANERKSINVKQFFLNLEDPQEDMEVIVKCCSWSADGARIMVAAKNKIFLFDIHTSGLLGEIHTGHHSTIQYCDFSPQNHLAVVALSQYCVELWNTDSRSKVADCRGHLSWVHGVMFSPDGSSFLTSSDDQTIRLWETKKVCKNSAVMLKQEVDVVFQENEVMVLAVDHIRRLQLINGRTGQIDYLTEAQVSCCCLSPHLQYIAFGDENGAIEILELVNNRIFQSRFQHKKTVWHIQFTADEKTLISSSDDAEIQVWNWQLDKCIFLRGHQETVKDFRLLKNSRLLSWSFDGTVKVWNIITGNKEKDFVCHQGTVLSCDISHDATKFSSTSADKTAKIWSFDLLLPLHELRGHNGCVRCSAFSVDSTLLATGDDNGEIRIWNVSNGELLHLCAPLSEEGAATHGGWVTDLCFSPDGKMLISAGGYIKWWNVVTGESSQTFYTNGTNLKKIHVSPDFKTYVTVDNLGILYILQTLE
It counts as functional.

The target of test [11] is T5, Replicative DNA helicase DnaB (Mycobacterium tuberculosis, UniProt P9WMR3).
T5 sequence (P9WMR3 whole entry): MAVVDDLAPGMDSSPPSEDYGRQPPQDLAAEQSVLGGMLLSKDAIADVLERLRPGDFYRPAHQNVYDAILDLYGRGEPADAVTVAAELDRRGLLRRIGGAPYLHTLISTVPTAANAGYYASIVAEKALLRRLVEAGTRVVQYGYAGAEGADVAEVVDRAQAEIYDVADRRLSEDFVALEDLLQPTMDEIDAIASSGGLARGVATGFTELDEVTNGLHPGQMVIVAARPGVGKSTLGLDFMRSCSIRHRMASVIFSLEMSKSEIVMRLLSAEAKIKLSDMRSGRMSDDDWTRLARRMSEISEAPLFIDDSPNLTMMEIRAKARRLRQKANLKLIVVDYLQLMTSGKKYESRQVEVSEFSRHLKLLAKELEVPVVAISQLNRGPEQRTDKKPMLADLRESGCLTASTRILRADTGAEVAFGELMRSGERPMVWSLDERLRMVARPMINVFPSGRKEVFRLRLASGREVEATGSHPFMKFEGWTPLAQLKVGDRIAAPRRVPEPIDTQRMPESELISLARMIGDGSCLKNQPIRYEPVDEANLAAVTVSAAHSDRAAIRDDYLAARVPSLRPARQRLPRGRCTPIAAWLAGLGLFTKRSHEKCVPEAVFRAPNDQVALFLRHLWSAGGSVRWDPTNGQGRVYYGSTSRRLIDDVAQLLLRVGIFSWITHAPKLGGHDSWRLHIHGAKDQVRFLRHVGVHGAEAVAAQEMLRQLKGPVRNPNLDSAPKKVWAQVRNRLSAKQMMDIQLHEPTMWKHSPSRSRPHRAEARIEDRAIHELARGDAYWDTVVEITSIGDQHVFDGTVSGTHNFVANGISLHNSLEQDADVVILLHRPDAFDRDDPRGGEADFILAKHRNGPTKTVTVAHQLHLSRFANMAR
Description: DnaB intein splicing inhibitors, dose response, biochemical, cell-free fluorescence (AID 449749). It counts as functional.

Sequence of Adenosylmethionine-8-amino-7-oxononanoate aminotransferase (P9WQ81 whole entry): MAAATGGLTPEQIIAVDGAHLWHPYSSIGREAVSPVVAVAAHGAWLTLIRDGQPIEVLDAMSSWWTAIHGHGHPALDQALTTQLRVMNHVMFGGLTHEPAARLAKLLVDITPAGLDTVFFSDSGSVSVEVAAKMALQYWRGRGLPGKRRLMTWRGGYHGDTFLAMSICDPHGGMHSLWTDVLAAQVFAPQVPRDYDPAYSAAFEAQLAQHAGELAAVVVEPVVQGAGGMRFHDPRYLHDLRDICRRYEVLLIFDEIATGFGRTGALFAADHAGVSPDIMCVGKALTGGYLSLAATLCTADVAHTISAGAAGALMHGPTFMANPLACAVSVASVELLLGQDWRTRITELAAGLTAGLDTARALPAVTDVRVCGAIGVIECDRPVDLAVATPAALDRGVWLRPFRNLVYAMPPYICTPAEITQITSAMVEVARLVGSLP
Sequence of Dual specificity protein phosphatase 3 (P51452 whole entry): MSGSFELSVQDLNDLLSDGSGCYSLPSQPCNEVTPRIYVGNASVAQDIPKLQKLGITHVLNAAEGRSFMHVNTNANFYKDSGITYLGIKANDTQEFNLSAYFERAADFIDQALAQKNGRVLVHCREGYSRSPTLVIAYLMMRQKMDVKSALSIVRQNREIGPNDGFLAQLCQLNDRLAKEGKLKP
Sequence of DNA repair and recombination protein RAD54-like (Q92698 whole entry): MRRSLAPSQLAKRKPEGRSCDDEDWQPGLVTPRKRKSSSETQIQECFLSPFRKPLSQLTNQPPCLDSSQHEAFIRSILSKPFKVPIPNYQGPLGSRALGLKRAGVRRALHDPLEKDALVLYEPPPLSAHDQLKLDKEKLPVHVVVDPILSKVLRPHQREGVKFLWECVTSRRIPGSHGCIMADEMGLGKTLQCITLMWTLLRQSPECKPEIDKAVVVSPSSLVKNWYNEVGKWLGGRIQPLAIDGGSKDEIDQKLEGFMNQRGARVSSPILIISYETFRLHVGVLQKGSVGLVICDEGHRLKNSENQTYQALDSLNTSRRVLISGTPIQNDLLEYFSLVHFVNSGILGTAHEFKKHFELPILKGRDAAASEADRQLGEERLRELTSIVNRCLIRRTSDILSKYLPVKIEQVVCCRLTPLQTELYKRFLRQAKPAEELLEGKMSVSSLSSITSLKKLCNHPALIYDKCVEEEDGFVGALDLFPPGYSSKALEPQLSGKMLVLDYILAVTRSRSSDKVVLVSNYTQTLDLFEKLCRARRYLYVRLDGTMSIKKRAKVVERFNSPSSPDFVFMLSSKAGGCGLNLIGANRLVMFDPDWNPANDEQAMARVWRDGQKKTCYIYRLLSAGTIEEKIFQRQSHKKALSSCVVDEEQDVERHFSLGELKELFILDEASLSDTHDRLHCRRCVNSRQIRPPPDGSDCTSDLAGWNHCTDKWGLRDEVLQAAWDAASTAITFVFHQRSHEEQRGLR
Sequence of Tyrosine-protein phosphatase non-receptor type 11 (Q06124 whole entry): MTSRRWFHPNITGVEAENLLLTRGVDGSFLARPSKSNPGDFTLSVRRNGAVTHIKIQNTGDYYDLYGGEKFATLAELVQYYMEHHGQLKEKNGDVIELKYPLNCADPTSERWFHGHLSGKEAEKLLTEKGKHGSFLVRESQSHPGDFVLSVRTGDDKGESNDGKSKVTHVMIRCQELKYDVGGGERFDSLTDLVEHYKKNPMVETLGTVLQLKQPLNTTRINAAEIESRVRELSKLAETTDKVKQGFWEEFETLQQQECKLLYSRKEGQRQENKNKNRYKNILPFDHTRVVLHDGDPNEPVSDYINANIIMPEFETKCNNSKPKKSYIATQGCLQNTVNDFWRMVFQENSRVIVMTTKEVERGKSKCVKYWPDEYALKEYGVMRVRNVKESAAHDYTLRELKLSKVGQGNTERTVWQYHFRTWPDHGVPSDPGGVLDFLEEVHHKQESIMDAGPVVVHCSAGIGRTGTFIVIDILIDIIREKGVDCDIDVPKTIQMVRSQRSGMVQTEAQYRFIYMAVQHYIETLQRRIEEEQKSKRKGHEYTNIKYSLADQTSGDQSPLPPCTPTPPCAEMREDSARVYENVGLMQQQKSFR
Sequence of Ras and Rab interactor 1/Tyrosine-protein kinase ABL1 (P00519 whole entry): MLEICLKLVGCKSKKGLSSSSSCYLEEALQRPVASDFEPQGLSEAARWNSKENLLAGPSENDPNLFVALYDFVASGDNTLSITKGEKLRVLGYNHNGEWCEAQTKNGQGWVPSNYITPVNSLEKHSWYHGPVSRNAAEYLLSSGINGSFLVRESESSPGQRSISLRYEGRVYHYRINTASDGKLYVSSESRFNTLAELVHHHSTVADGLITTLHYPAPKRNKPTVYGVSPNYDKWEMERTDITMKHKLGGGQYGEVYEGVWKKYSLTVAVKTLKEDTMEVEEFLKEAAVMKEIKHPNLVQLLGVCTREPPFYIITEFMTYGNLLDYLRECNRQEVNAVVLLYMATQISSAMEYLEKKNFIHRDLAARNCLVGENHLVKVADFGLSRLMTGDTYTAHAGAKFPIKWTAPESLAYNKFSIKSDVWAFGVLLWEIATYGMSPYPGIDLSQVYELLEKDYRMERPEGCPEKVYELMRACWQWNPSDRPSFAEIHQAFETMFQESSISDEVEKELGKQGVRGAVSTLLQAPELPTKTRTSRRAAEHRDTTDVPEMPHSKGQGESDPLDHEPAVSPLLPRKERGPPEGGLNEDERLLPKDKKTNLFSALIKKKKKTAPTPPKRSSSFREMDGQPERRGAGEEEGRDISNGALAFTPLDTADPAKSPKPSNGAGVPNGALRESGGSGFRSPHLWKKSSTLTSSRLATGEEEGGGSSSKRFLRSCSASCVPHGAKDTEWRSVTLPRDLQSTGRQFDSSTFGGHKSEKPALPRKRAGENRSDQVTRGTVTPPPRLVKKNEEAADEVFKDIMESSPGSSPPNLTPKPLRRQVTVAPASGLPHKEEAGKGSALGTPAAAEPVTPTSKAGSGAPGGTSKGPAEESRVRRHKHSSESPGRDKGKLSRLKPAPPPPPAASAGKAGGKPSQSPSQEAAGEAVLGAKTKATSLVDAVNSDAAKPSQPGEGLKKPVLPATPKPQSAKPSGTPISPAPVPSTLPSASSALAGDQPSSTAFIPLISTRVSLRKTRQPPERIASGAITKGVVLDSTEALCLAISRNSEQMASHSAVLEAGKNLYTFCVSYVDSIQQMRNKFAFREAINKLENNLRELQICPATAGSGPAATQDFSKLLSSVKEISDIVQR
Sequence of Ras and Rab interactor 1/Tyrosine-protein kinase ABL1 (Q13671 whole entry): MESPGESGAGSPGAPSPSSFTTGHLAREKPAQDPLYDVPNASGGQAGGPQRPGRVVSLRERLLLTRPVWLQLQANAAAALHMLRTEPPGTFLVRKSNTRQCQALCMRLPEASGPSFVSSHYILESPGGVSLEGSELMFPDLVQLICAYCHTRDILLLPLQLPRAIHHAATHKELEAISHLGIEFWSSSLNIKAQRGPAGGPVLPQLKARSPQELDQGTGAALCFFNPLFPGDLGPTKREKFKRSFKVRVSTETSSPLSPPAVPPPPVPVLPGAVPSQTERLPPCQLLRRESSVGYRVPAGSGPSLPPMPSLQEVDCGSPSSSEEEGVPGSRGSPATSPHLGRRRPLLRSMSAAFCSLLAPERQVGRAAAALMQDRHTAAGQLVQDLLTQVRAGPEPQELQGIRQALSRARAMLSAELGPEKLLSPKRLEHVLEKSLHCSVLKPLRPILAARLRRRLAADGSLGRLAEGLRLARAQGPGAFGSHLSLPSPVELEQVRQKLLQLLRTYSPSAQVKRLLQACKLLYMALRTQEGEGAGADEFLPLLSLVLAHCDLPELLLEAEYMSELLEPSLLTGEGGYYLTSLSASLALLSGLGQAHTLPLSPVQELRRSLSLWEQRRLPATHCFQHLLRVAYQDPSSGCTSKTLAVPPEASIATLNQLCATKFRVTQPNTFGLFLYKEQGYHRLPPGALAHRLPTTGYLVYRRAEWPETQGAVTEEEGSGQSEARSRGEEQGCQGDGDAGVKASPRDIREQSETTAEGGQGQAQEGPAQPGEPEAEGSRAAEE
Sequence of Nonstructural protein 1 (Q194T2 whole entry): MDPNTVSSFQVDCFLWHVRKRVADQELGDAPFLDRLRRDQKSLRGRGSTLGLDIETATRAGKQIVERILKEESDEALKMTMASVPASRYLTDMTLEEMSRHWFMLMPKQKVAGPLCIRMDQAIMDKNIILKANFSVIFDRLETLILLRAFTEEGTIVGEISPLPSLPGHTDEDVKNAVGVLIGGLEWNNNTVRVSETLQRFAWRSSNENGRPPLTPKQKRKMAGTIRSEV
Sequence of Tyrosine-protein phosphatase non-receptor type 5 (P54829 whole entry): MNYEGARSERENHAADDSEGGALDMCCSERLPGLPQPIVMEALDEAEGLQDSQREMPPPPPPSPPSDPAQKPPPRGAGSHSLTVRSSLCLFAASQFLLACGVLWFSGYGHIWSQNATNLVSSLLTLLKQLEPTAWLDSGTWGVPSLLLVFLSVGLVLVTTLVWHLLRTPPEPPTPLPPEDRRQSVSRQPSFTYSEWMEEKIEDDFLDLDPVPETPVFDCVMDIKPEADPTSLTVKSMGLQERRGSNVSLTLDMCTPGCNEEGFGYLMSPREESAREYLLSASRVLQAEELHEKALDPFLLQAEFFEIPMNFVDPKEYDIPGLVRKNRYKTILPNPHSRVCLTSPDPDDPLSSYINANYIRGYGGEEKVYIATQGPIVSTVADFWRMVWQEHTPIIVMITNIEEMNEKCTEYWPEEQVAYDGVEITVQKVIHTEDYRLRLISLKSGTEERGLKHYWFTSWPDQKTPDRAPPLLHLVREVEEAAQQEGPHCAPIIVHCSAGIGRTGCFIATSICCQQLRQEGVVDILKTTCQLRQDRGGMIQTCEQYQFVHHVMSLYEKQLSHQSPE

With `CCOC(=O)c1ccc(N2C(=O)c3[nH]nc(C)c3C2c2ccc(OC)c(OC)c2)cc1` (stereo unspecified), the AC50 (commonly the concentration giving half of the maximal activity seen) in test [1] was 128 nM (active).
Consider `Cc1ccc(NC(=O)CCCCCC2NC(=O)NC2C)cc1` (stereo unspecified), for which the concentration at half-maximal activity (AC50) in test [2] was 358 nM (active). In addition, the values for the IC50 (at Nonstructural protein 1; in test [3]) were 1060 nM (active) and 14.5 nM (active), respectively.
`N#Cc1nc(Cc2cccc3ccccc23)oc1NCCCN1CCOCC1`: the IC50 in [4] is 3800 nM (active); in test [5] it was 1580 nM (active).
As for `COc1ccc(NC(=O)c2cc(=O)c3ccccc3o2)cc1Cl`, the IC50 was 2820 nM (active) in test [6], > 80000 nM (inactive) in [7] and 4600 nM (active) in test [8].
Turning to `O=C(Nc1cccnc1)c1cc2nc(C3CC3)cc(C(F)(F)F)n2n1`, in [1], the half-maximal activity concentration (AC50) was 144 nM (active).
`CNc1nc(SC)nc2ccsc12`: the IC50 is 743 nM (active) in [4] and 1500 nM (active) in test [5].
With `CCN1CCN(c2cc(C)c3cc(NC(S)=NCCN(C)C)ccc3n2)CC1`, in test [9], the concentration at half-maximal activity (AC50) was 24300 nM (active).
For the molecule `COc1ccc(S(=O)(=O)/N=C2\C=C(NS(=O)(=O)c3ccccc3)C(=O)c3ccccc32)cc1`, the concentration giving a half-maximal response (EC50) (in general, the concentration at which the effect is half-maximal) at Protein RecA is 1580 nM (active). Besides, the IC50 in test [10] was 16600 nM (active). The AC50 in test [11] was 1890 nM (active).

For the origin of these results see ChEMBL document CHEMBL1201862, “PubChem BioAssay data set” (2004).
